Data reported in the NIST ThermoML archive (doi:10.1016/j.fluid.2015.08.029).

Test: xn = mol fraction of the nth substance listed
Conditions: Fluid (supercritical or subcritical phases), Buoyancy - hydrostatic balance with magnetic suspension - one sinker, x2 = 0.95

C [methane] + O=C=O
Conditions | mass density [kg/m3]
305.16 K, 9767.1 kPa | 617.141
305.16 K, 9967.5 kPa | 629.726
305.17 K, 9370.3 kPa | 584.841
306.1 K, 7971 kPa | 291.729
306.14 K, 8569.3 kPa | 407.211
306.15 K, 8769.4 kPa | 456.137
306.15 K, 9367.9 kPa | 559.009
306.15 K, 9567.4 kPa | 580.099
306.15 K, 9767.6 kPa | 597.343
306.16 K, 9168.1 kPa | 532.249
306.17 K, 8170.1 kPa | 321.108
306.17 K, 8969 kPa | 498.232
306.17 K, 9967.5 kPa | 611.559
306.18 K, 8370.6 kPa | 359.348
307.11 K, 7970.8 kPa | 279.021
307.15 K, 8769.2 kPa | 417.545
307.15 K, 9369.4 kPa | 530.475
307.15 K, 9968.3 kPa | 592.558
307.16 K, 8569.4 kPa | 373.594
307.16 K, 9769.9 kPa | 575.499
307.17 K, 8370.1 kPa | 335.111
307.17 K, 9567.7 kPa | 554.846
307.18 K, 8170.2 kPa | 303.687
307.18 K, 8969.6 kPa | 460.414
307.19 K, 9168.1 kPa | 498.151
308.14 K, 7971.8 kPa | 268.365
308.15 K, 8969.6 kPa | 425.843
308.16 K, 8773.5 kPa | 385.91
308.16 K, 9568.1 kPa | 527.899
308.16 K, 9772 kPa | 552.011
308.16 K, 9967.3 kPa | 570.979
308.17 K, 8171.2 kPa | 290.106
308.17 K, 8372.6 kPa | 316.707
308.17 K, 9169 kPa | 464.65
308.17 K, 9368.5 kPa | 499.11
308.18 K, 8570.3 kPa | 347.84
309.13 K, 7972 kPa | 259.723
309.15 K, 8969.7 kPa | 395.876
309.15 K, 9967.3 kPa | 548.766
309.16 K, 9568.6 kPa | 499.83
309.16 K, 9768.9 kPa | 526.36
309.17 K, 8171 kPa | 279.024
309.17 K, 8570.8 kPa | 328.632
309.17 K, 8772.2 kPa | 360.359
309.17 K, 9170.1 kPa | 432.906
309.17 K, 9369 kPa | 468.272
309.18 K, 8371.4 kPa | 301.81
310.13 K, 7971.6 kPa | 252.206
310.15 K, 9168.8 kPa | 404.887
310.15 K, 9768.4 kPa | 500.279
310.16 K, 9368.7 kPa | 438.984
310.17 K, 8169.9 kPa | 269.525
310.17 K, 8371.3 kPa | 289.994
310.17 K, 8570.5 kPa | 313.293
310.17 K, 8969.4 kPa | 370.784
310.17 K, 9568.2 kPa | 470.935
310.17 K, 9969.4 kPa | 524.504
310.18 K, 8771.3 kPa | 340.177
311.13 K, 7972.7 kPa | 245.539
311.15 K, 8969.4 kPa | 351.047
311.16 K, 9169.2 kPa | 380.674
311.17 K, 8170.7 kPa | 261.395
311.17 K, 8372.1 kPa | 279.845
311.17 K, 8571.3 kPa | 300.517
311.17 K, 9768.1 kPa | 473.276
311.17 K, 9967.8 kPa | 499.737
311.18 K, 9568.6 kPa | 443.32
311.19 K, 8770.5 kPa | 323.691
311.19 K, 9369 kPa | 411.617
312.13 K, 7972.4 kPa | 239.656
312.17 K, 8771.1 kPa | 310.807
312.17 K, 9568.6 kPa | 418.783
312.17 K, 9768.9 kPa | 448.071
312.17 K, 9967.7 kPa | 475.106
312.18 K, 8571.5 kPa | 289.726
312.18 K, 9169.8 kPa | 360.525
312.19 K, 8172.7 kPa | 254.332
312.19 K, 8372.2 kPa | 270.995
312.19 K, 8970.5 kPa | 334.208
312.19 K, 9369.6 kPa | 388.871
313.14 K, 7973.3 kPa | 234.195
313.17 K, 8571.8 kPa | 280.559
313.17 K, 8771.6 kPa | 299.532
313.17 K, 8970.6 kPa | 320.608
313.17 K, 9170.2 kPa | 344.172
313.17 K, 9369.7 kPa | 369.68
313.17 K, 9768.4 kPa | 424.626
313.18 K, 8171.5 kPa | 247.96
313.18 K, 8372.5 kPa | 263.421
313.18 K, 9569.1 kPa | 396.668
